According to patent US9572814B2, “Methods of improving the pharmacokinetics of doxepin” (Pernix Sleep, Inc., priority 2006, dated 2017):
Like-named read-outs stand apart in the source and are kept apart here.

Columns and labels:
clinical = conditions: both, human, plasma, po, 6 milligram
[1] = calculated from geometric LS means, single 6 milligram dose
[2] = plasma, single 6 milligram doxepin tablet, fasted (N = 15)
[3] = plasma, single 6 milligram doxepin tablet, fed (N = 16)
[4] = ratio of geometric LS means, 6 milligram doxepin tablet
[5] = single 6 milligram doxepin tablet, fasted (N 15)
[6] = single 6 milligram doxepin tablet, fed (N 16)
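Further: healthy young adult men and women, dosed in the morning. Doxepin in plasma by validated HPLC-MS/MS (LLOQ 0.05 ng/mL), parameters by noncompartmental analysis on actual elapsed time after dosing.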

CN(C)CCC=C1c2ccccc2COc2ccccc21 [doxepin]
Cmax (clinical): 0.854 ng/mL | Tmax (clinical): 3 h | time postdose at which detectable plasma levels were first observed (both fed and fasted states (six and five subjects, respectively)): 30 min | time postdose up to which plasma doxepin concentrations remained quantifiable (both treatments (fed and fasted), lower limit of quantification 0.05 ng/mL): up to 48 hours | AUC0-∞, Effect of Food (% of fasted state) [1]: 141 % of fasted state | Cmax, Effect of Food (% of fasted state) [1]: 115 % of fasted state | Tmax, Effect of Food (% of fasted state) (median Tmax, single 6 milligram dose): 200 % of fasted state | AUC0-Tlast, arithmetic mean [2]: 12.6 ng·h/mL | AUC0-∞, arithmetic mean [2]: 14.1 ng·h/mL | t1/2, arithmetic mean [2]: 14.4 h | λz, arithmetic mean [2]: 0.0623 h⁻¹ | Cmax, arithmetic mean [3]: 0.951 ng/mL | Tmax, median [3]: 6.0 h | λz, arithmetic mean [3]: 0.0445 h⁻¹ | AUC0-Tlast, Pairwise Comparison Ratio Fed/Fasted [4]: 145.6% | AUC0-∞, Pairwise Comparison Ratio Fed/Fasted [4]: 141.3% | Cmax, Pairwise Comparison Ratio Fed/Fasted [4]: 114.6% | increase in AUC0-Tlast under fed conditions compared to fasted conditions (single 6 milligram dose): 46% | mean CL/F lower in the fed state compared to the fasted state (single 6 milligram dose): 43% | mean Vd/F lower in the fed state compared to the fasted state (single 6 milligram dose): 14% | time postdose by which all subjects had detectable concentrations (single 6 milligram dose): ≤ 90 min | time postdose at which mean plasma concentrations reach Cmax (single 6 milligram dose, fasted state (Treatment A)): 3.0 h | time postdose at which mean plasma concentrations reach Cmax (single 6 milligram dose, fed state (Treatment B)): 6.0 h | AUC0-Tlast, Geometric LS Mean [5]: 9.194 ng·h/mL | AUC0-∞, Geometric LS Mean [5]: 10.72 ng·h/mL | Cmax, Geometric LS Mean [5]: 0.717 ng/mL | CL/F, arithmetic mean (single 6 milligram doxepin tablet, fasted (N = 15)): 837 L/h | AUC0-Tlast, Geometric LS Mean [6]: 13.39 ng·h/mL | AUC0-∞, Geometric LS Mean [6]: 15.14 ng·h/mL | Cmax, Geometric LS Mean [6]: 0.822 ng/mL | CL/F, arithmetic mean (single 6 milligram doxepin tablet, fed (N = 16)): 477 L/h
